Reference: patent US20200216417A1, “INHIBITORS OF FIBROBLAST ACTIVATION PROTEIN” (Praxis Biotech LLC, priority 2019, published 2020)
Like-named read-outs stand apart in the source and are kept apart here.

What was measured:
Type in all cases: biochemical
[1] = target: T1, recombinant human DPPIV (rhDPPIV) (Homo sapiens, UniProt P27487); assay: DPPIV enzymatic activity assay, H-Gly-Pro-pNA
T1 construct: purchased R&S system (so in the source)

[2] = target: T2, recombinant human DPP9 (rhDPP9) (Homo sapiens, UniProt Q86TI2); assay: DPP9 enzymatic activity assay, 40 ng rhDPP9, HEPES buffer; details: Table 3A
T2 construct: purchased R&S system / R&D systems (both sic) 5419-SE
T2 sequence (Q86TI2 whole entry): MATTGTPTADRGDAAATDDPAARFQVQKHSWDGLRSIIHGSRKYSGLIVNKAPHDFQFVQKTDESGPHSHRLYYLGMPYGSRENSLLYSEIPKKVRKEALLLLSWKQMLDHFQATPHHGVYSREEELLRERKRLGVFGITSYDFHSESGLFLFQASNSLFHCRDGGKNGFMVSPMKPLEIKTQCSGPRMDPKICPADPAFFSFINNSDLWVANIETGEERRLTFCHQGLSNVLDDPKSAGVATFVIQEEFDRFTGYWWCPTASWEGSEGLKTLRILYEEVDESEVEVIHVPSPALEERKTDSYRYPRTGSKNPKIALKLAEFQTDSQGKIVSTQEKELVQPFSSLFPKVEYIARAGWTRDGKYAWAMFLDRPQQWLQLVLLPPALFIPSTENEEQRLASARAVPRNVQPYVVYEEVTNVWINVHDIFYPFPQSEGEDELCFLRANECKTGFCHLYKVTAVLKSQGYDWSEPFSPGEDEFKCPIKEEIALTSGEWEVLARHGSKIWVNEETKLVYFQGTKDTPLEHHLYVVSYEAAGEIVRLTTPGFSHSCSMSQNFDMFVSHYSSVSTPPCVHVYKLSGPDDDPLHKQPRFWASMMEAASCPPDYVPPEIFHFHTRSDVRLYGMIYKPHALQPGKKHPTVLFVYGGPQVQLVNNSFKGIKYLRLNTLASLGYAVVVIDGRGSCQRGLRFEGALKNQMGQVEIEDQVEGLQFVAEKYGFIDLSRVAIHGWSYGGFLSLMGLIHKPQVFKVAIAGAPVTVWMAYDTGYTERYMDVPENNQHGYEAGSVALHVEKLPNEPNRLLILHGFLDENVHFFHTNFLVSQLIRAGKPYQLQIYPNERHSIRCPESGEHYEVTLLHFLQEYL

[3] = target: T3, recombinant human PREP (rhPREP) (Homo sapiens, UniProt P48147); assay: PREP enzymatic activity assay, Z-Gly-Pro-AMC
T3 sequence (P48147 1-710): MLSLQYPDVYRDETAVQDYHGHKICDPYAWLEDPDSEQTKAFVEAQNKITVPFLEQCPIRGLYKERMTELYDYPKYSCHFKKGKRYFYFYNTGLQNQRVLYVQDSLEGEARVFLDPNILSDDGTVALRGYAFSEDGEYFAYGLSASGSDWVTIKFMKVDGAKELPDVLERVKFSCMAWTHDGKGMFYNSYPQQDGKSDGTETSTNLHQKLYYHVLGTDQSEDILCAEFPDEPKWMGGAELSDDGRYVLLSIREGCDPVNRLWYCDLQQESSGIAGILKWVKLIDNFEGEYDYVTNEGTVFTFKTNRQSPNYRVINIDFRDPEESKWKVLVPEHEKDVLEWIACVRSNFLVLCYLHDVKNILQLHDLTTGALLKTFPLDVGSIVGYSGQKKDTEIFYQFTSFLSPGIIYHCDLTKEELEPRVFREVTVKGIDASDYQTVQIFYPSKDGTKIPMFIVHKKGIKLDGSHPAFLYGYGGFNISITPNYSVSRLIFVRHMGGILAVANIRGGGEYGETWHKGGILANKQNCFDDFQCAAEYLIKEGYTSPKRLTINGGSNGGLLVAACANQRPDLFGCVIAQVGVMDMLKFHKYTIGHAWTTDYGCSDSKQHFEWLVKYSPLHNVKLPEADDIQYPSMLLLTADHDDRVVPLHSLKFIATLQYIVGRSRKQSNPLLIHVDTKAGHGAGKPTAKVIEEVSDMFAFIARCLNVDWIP

[4] = target: T4, recombinant human FAPα (rhFAPα) (Homo sapiens, UniProt Q12884); assay: FAPα enzymatic exopeptidase (dipeptidase) activity assay, Z-Gly-Pro-AMC; details: for inhibition at 1 µM: exopeptidase inhibition at 1 μM test compound
T4 construct: purchased R&S system (so in the source)
T4 sequence (Q12884 1-760): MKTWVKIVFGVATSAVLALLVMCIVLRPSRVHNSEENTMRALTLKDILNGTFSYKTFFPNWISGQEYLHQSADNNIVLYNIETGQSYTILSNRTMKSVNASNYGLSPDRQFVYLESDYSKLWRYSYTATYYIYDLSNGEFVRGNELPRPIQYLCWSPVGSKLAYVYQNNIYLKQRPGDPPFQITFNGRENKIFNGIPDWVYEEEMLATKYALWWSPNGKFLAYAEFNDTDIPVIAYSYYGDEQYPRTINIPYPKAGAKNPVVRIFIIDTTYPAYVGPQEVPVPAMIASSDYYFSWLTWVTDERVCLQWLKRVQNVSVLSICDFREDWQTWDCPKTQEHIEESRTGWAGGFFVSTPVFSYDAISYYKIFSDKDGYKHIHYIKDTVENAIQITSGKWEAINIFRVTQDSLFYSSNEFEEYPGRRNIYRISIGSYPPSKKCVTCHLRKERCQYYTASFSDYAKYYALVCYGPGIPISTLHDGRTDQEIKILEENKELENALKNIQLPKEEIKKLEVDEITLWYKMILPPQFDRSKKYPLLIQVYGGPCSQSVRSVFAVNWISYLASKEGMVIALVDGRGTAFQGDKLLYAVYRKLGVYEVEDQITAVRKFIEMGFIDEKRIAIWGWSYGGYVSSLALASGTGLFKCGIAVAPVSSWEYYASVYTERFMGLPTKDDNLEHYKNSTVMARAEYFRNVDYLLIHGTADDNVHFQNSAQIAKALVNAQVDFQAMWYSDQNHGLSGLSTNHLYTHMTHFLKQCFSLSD

[5] = target: T2, recombinant human DPP9 (rhDPP9); assay: DPP9 inhibition assay, 10 ng rhDPP9, Tris-HCl/BSA buffer; details: Table 3B
[6] = Table 2, read-out: rhFAPα (% exo inh @ 1 μM)
[7] = Table 3B, read-out: rhFAPα % exo inh @ 1 μM
[8] = exopeptidase, Table 2, read-out: rhFAPα (exo IC50)
[9] = exopeptidase, Table 3A, read-out: rhFAPα (exo IC50)

T1 sequence (P27487 whole entry): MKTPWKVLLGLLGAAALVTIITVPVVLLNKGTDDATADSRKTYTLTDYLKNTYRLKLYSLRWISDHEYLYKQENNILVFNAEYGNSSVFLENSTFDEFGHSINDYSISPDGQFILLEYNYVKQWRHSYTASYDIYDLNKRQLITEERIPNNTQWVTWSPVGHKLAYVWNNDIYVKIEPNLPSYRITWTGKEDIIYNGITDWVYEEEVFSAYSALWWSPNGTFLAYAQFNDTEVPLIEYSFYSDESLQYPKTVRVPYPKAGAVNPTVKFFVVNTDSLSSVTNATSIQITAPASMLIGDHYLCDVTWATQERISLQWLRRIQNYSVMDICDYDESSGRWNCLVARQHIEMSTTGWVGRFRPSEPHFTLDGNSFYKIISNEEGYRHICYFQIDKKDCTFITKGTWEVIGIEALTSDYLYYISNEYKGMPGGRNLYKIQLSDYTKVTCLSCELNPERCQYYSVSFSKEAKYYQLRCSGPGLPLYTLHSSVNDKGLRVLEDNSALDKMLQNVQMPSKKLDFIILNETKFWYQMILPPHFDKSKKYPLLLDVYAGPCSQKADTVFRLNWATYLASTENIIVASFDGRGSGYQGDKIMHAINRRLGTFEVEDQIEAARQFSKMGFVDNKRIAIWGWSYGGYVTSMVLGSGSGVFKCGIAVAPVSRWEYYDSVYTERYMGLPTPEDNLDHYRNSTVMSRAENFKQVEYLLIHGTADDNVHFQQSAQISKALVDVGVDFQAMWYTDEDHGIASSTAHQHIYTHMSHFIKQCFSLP

| IC50 ([1]; Table 3A) [nM] | IC50 ([1]; Table 3B) [nM] | IC50 [2] [nM] | IC50 ([3]; Table 3A) [nM] | IC50 ([3]; Table 3B) [nM] | IC50 ([4]; Table 3B, read-out: rhFAP IC50) [nM] | inhibition at 1 µM [4, 6] [%] | inhibition at 1 µM [4, 7] [%] | IC50 [4, 8] [nM] | IC50 [4, 9] [nM] | IC50 [5] [nM] | Structure (SMILES) |
| --- | --- | --- | --- | --- | --- | --- | --- | --- | --- | --- | --- |
| > 10000 | > 10000 | > 10000 | > 10000 | > 10000 | < 1000 | > 50 | > 50 | < 1000 | < 1000 | 1000 to 10000 | N#C[C@@H]1CC(F)(F)CN1C(=O)CNC(=O)c1ccncc1NC(=O)Cc1ccccc1 [Compound 1, (S)—N-(2-(2-cyano-4,4-difluoropyrrolidin-1-yl)-2-oxoethyl)-3-(2-phenylacetamido)isonicotinamide] |
| 1000 to 10000 | 1000 to 10000 | > 10000 | > 10000 | > 10000 | < 1000 | > 50 | > 50 | < 1000 | < 1000 | 1000 to 10000 | CC(Nc1cnccc1C(=O)NCC(=O)N1CC(F)(F)C[C@H]1C#N)c1ccc(F)cc1 (stereo partly drawn) [Compound 4, N-(2-((S)-2-cyano-4,4-difluoropyrrolidin-1-yl)-2-oxoethyl)-3-((1-(4-fluorophenyl)ethyl)amino)isonicotinamide] |
| – | – | 1000 to 10000 | – | – | < 1000 | > 50 | > 50 | < 1000 | < 1000 | 1000 to 10000 | N#C[C@@H]1CC(F)(F)CN1C(=O)CNC(=O)c1ccnc(N2CCN(C(c3ccc(F)cc3)c3ccc(F)cc3)CC2)c1 [Compound 6, (S)-2-(4-(bis(4-fluorophenyl)methyl)piperazin-1-yl)-N-(2-(2-cyano-4,4-difluoropyrrolidin-1-yl)-2-oxoethyl)isonicotinamide] |
| 1000 to 10000 | 1000 to 10000 | 1000 to 10000 | 1000 to 10000 | 1000 to 10000 | < 1000 | > 50 | > 50 | < 1000 | < 1000 | 1000 to 10000 | N#C[C@@H]1CC(F)(F)CN1C(=O)CNC(=O)c1ccncc1CCc1ccc(Cl)cc1 [Compound 10, (S)-3-(4-chlorophenethyl)-N-(2-(2-cyano-4,4-difluoropyrrolidin-1-yl)-2-oxoethyl)isonicotinamide] |
| – | > 10000 | – | – | > 10000 | < 1000 | – | > 50 | – | – | 1000 to 10000 | C/C(=C\c1cnccc1C(=O)NCC(=O)N1CC(F)(F)C[C@H]1C#N)c1ccc(OC(F)(F)F)cc1 [Compound 19] |
| – | > 10000 | – | – | > 10000 | < 1000 | – | > 50 | – | – | 1000 to 10000 | C/C(=C\c1cnccc1C(=O)NCC(=O)N1CC(F)(F)C[C@H]1C#N)c1ccc(C(F)(F)F)cc1 [Compound 20] |
| – | 1000 to 10000 | – | – | > 10000 | < 1000 | – | > 50 | – | – | 1000 to 10000 | N#C[C@@H]1CC(F)(F)CN1C(=O)CNC(=O)c1ccncc1/C=C/c1ccc(C(F)(F)F)cc1 [Compound 24] |
| – | > 10000 | – | – | > 10000 | < 1000 | – | > 50 | – | – | < 1000 | C/C(=C\c1cnccc1C(=O)NCC(=O)N1CC(F)(F)C[C@H]1C#N)c1ccc(Cl)cc1 [Compound 26] |
| – | > 10000 | – | – | > 10000 | < 1000 | – | > 50 | – | – | 1000 to 10000 | COc1ccc(/C(C)=C/c2cnccc2C(=O)NCC(=O)N2CC(F)(F)C[C@H]2C#N)cc1 [Compound 29] |
| – | > 10000 | – | – | > 10000 | < 1000 | – | > 50 | – | – | < 1000 | N#C[C@@H]1CC(F)(F)CN1C(=O)CNC(=O)c1ccncc1/C=C/c1ccc(OC(F)(F)F)cc1 [Compound 33] |
| – | > 10000 | – | – | > 10000 | < 1000 | – | > 50 | – | – | < 1000 | N#C[C@@H]1CC(F)(F)CN1C(=O)CNC(=O)c1ccnc2ccc(-c3ccc(C(F)(F)F)cc3)cc12 [Compound 35] |
| – | > 10000 | – | – | > 10000 | < 1000 | – | > 50 | – | – | > 10000 | COc1ccc(C#Cc2cnccc2C(=O)NCC(=O)N2CC(F)(F)C[C@H]2C#N)cc1 [Compound 36] |
| – | > 10000 | – | – | > 10000 | < 1000 | – | > 50 | – | – | > 10000 | N#C[C@@H]1CC(F)(F)CN1C(=O)CNC(=O)c1ccncc1C#Cc1ccc(Cl)cc1 [Compound 37] |
| – | > 10000 | – | – | > 10000 | < 1000 | – | > 50 | – | – | < 1000 | N#C[C@@H]1CC(F)(F)CN1C(=O)CNC(=O)c1ccnc2ccc(-c3ccc(C(F)(F)F)nc3)cc12 [Compound 38] |
| – | > 10000 | – | – | > 10000 | < 1000 | – | > 50 | – | – | < 1000 | C/C(=C\c1ccc2nccc(C(=O)NCC(=O)N3CC(F)(F)C[C@H]3C#N)c2c1)c1ccc(Cl)cc1 [Compound 39] |
| – | > 10000 | – | – | > 10000 | < 1000 | – | > 50 | – | – | < 1000 | N#C[C@@H]1CC(F)(F)CN1C(=O)CNC(=O)c1ccnc2ccc(/C=C/c3ccc4cc(Cl)ccc4c3)cc12 [Compound 42] |
| – | > 10000 | – | – | > 10000 | < 1000 | – | > 50 | – | – | < 1000 | COc1ccc(/C=C/c2ccc3nccc(C(=O)NCC(=O)N4CC(F)(F)C[C@H]4C#N)c3c2)cn1 [Compound 43] |
| – | > 10000 | – | – | > 10000 | < 1000 | – | > 50 | – | – | < 1000 | N#C[C@@H]1CC(F)(F)CN1C(=O)CNC(=O)c1ccnc2ccc(/C=C/c3ccc(OC(F)(F)F)cc3)cc12 [Compound 48] |
| – | – | – | – | – | < 1000 | – | > 50 | – | – | < 1000 | Cc1ccc(/C=C/c2ccc3nccc(C(=O)NCC(=O)N4CC(F)(F)C[C@H]4C#N)c3c2)nc1 [Compound 49] |
| – | – | – | – | – | < 1000 | – | > 50 | – | – | 1000 to 10000 | CC(C)(C)c1ccc(/C=C/c2ccc3nccc(C(=O)NCC(=O)N4CC(F)(F)C[C@H]4C#N)c3c2)cc1 [Compound 50] |
| – | – | – | – | – | < 1000 | – | > 50 | – | – | < 1000 | N#C[C@@H]1CC(F)(F)CN1C(=O)CNC(=O)c1ccnc2ccc(/C=C/c3ccc(C(F)(F)F)cc3)cc12 [Compound 51] |
| – | – | – | – | – | < 1000 | – | > 50 | – | – | 1000 to 10000 | CN1CCN(c2ccc(-c3ccc4nccc(C(=O)NCC(=O)N5CC(F)(F)C[C@H]5C#N)c4c3)cn2)CC1 [Compound 52] |
| – | > 10000 | – | – | – | < 1000 | – | > 50 | – | – | – | C[C@H](Nc1cnccc1C(=O)NCC(=O)N1CC(F)(F)C[C@H]1C#N)c1ccc(F)cc1 [Compound 190] |
| – | > 10000 | – | – | 1000 to 10000 | < 1000 | – | > 50 | – | – | – | C[C@@H](Nc1cnccc1C(=O)NCC(=O)N1CC(F)(F)C[C@H]1C#N)c1ccc(F)cc1 [Compound 191] |
| – | > 10000 | – | – | > 10000 | < 1000 | – | > 50 | – | – | – | CC(C)(O)c1ccc(-c2ccc3nccc(C(=O)NCC(=O)N4CC(F)(F)C[C@H]4C#N)c3c2)cc1 [Compound 195] |
